US20110065734A1, “NOVEL BIFUNCTIONAL COMPOUNDS WHICH INHIBIT PROTEIN KINASES AND HISTONE DEACETYLASES” (4SC AG, priority 2007, published 2011)

Legend:
HDACs 4 to 8 = conditions: read-out: HDACs 4 to 8 IC50; Kalita et al. 2005; cited from earlier work
HDAC11 = molecular target: T1, HDAC11 (Homo sapiens, UniProt Q96DB2); conditions: Kalita et al. 2005; one range for HDAC1, 2, 3 and 11; cited from earlier work
T1 sequence (Q96DB2 1-347): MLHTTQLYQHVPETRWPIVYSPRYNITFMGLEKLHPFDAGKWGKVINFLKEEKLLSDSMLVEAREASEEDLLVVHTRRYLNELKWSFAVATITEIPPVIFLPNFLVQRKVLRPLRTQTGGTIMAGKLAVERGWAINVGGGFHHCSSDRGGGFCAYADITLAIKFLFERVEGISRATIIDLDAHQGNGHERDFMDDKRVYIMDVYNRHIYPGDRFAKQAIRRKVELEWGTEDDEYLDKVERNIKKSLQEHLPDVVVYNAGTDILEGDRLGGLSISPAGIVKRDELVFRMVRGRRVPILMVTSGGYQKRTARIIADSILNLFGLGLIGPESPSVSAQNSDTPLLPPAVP

[1] = system: HeLa cervical carcinoma cell line; assay: Cellular cytotoxicity assay (Alamar Blue), HeLa; type: cell-based; conditions: Homo sapiens, 72 h, only a range over the listed compounds is given, read-out: Cytotoxicity towards HeLa cervical cell line IC50
[2] = system: histone H3 hyperacetylation in HeLa cervical carcinoma cells; assay: Cellular histone H3 hyperacetylation assay; type: cell-based; conditions: Homo sapiens, 24 h, only a range over the listed compounds is given, read-out: Induction of histone H3 hyperacetylation in HeLa cervical carcinoma cells EC50
[3] = system: cellular HDAC activity in HeLa cells; assay: Quantification of cellular HDAC activity in HeLa cells; type: cell-based, human; conditions: 4 h compound incubation; for lists of compounds only a range is printed; read-out: Inhibition of cellular HDAC activity in HeLa cells IC50
Experimental: To assess the cellular potency of histone deacetylase inhibitors, an assay recently described was applied (Ciossek et al. Anal Biochem e-pub 2007). 5×10^3 HeLa cervical carcinoma cells/well (ATCC CCL-2) were cultivated in 200 μl/well DMEM (containing 10% FCS) in cell culture microliter plates (white, 96 well flat bottom plates suitable for fluorimetric analysis; Costar Art. No. 3917). Cells were cultivated for 24 h under standard cell culture conditions at 37° C. and 5% CO2 to allow cell attachment and proliferation. The compounds of the present invention were added at different concentrations (dilutions done in DMSO) and incubation continued for 4 h at 37° C. under cell culture conditions (each concentration was tested in quadruplicate). […] After discarding the culture medium, 100 μl/well substrate solution (200 μM Boc-K(Ac)-AMC in DMEM (containing 10% FCS), stock solution diluted 1:250) were added and incubation continued at 37° C. under cell culture conditions for further 3 h. […] After incubation for 5 min at 37° C., cells were lysed by addition of 100 μl/well lysis buffer (50 mM TRIS pH 8, 137 mM NaCl, 2.7 mM KCl, 1 mM MgCl2, 1 vol % NP-40) and further incubation for 20 min at 37° C. Finally, the amount of AMC was quantified using the Wallac Victor device (extinction λ=355 nm, emission at λ=460 inn).

A549 NSCLC cell line = assay: Cellular cytotoxicity assay (Alamar Blue), A549; type: cell-based; conditions: Homo sapiens, A549; 72 h; only a range over the listed compounds is given; read-out: Cytotoxicity towards A549 NSCLC cell line IC50
[4] = system: Cal27 head and neck cancer cell line; assay: Cellular cytotoxicity assay (Alamar Blue), Cal27; type: cell-based; conditions: Homo sapiens, CAL-27; 72 h; only a range over the listed compounds is given; read-out: Cytotoxicity towards Cal27 cell line IC50
Experimental: The anti-proliferative activity of the chimeric HDAC and protein kinase inhibitory chimeric compounds of the present invention was evaluated using HeLa cervical carcinoma, A549 NSCLC, SKOV3 ovarian carcinoma, Cal27 head and neck cancer, K562 chronic myeloid leukemia (CML) and EOL1 acute hypereosinophilic myeloid leukemia, cell lines. For quantification of cellular proliferation/living cells the Alamar Blue (Resazurin) cell viability assay was applied (O'Brien et al. Eur Biochem. 267, 5421-5426, 2000). In this assay Resazurin is reduced to the fluorescent resorufin by cellular dehydrogenase activity, correlating with viable, proliferating cells. The examples were dissolved as 20 mM solutions in dimethylsulfoxide (DMSO) and subsequently diluted in semi-logarithmic steps. Cell lines were seeded at respective density into 96 well flat bottom plates in a volume of 200 μl per well. 24 h after seeding 1 μl each of the compound dilutions were added into each well of the 96 well plate. Each compound dilution was tested as quadruplicates. Wells containing untreated control cells were filled with […] DMEM medium containing 0.5% v:v DMSO. The cells were then incubated with the substances for 72 h at 37° C. in a humidified atmosphere containing 5% carbon dioxide. To determine the viability of the cells, 20 μl of an Resazurin solution (Sigma; 90 mg/l) were added. After 4 h incubation at 37° C. the fluorescence was measured at an extinction of 544 nm and an emission of 590 nm. For the calculation of the cell viability the emission value from untreated cells was set as 100% viability and the emission rates of treated cells were set in relation to the values of untreated cells. Viabilities were expressed as % values. The corresponding IC50 values of the compounds for cytotoxic activity are determined from the concentration-effect curves by means of non-linear regression.

[5] = system: SKOV3 ovarian carcinoma cell line; assay: Cellular cytotoxicity assay (Alamar Blue), SKOV3; type: cell-based; conditions: Homo sapiens, SK-OV-3; 72 h; only a range over the listed compounds is given; read-out: Cytotoxicity towards SKOV3 cell line IC50
[6] = molecular target: T2, recombinant HDAC1 isolated from HEK293 cells with heterologous HDAC1 expression (Homo sapiens, UniProt Q13547); assay: Fluorimetric rHDAC1 activity assay; type: biochemical; conditions: only a range of IC50 over the compounds given; read-out: rHDAC1 inhibitory activity IC50
T2 construct: made in house
T2 sequence (Q13547 whole entry): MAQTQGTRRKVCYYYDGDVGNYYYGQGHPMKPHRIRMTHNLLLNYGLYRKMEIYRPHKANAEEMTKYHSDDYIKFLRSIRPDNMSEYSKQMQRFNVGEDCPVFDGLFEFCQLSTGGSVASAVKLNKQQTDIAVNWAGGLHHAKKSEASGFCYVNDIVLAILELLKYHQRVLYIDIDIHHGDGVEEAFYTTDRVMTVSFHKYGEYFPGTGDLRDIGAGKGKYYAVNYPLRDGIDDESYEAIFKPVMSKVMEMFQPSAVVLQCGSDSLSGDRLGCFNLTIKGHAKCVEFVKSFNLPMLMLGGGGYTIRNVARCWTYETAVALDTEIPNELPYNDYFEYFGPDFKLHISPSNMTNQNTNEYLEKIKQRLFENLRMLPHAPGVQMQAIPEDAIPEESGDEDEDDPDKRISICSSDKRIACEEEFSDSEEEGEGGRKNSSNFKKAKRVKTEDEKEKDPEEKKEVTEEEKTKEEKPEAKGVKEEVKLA

| SMILES | IC50 (HDACs 4 to 8) [nM] | IC50 (HDAC11) [nM] | IC50 [1] [nM] | EC50 [2] [nM] | IC50 [3] [nM] | IC50 (A549 NSCLC cell line) [nM] | IC50 [4] [nM] | IC50 [5] [nM] | IC50 [6] [nM] |
| --- | --- | --- | --- | --- | --- | --- | --- | --- | --- |
| Nc1ccccc1NC(=O)c1ccc(CNc2nccc(-c3cccnc3)n2)cc1 [MGCD0103] | > 20000 | 100 to 2000 |  |  |  |  |  |  |  |
| O=C(/C=C/c1cccc(-c2ccc3ncnc(Nc4ccc(OCc5cccc(F)c5)c(Cl)c4)c3c2)c1)NO [[9], E-3-(3-(4-(3-chloro-4-(3-fluorobenzyloxy)phenylamino)quinazolin-6-yl)phenyl)-N-hydroxy-acrylamide] |  |  | 910 to 9400 | ≥ 3650 | 430 | ≥ 1100 | ≥ 280 | ≥ 1000 | ≥ 35.3 |
